Values joined by “and” are separate entries in the source; they are usually repeats but may differ in a detail not shown here. Equal entries are not always repeated. Where two headings read alike, the source gives them in different places.
How the values were obtained:
[1] = molecular target: T1, SARS-CoV-2 PLpro (Severe acute respiratory syndrome coronavirus 2, UniProt P0DTD1); experiment: PL^pro fluorogenic peptide cleavage assay (substrate Z-RLRGG-AMC); type: biochemical; parameters: papain-like protease (PL^pro; domain of nsp3); His; purchased BPS Biosciences BPS-100735-1; conditions: for inhibition at 20 µM: read-out: SARS-CoV-2 PL^pro enzyme inhibition (%) 20 μM; for inhibition at 100 µM: read-out: SARS-CoV-2 PL^pro enzyme inhibition (%) 100 μM
[2] = molecular target: T1, SARS-CoV-2 PLpro; experiment: biochemical; parameters: papain-like protease (PL^pro; domain of nsp3); purchased Anaspec (Fremont, USA) AS-72263; conditions: for inhibition at 20 µM: read-out: SARS-CoV-2 PLpro inhibition % enzyme inhibition (20 µM); for SARS-CoV-2 PLpro inhibition % enzyme inhibition (20 µM): commercial Anaspec assay kit
[3] = in vitro; conditions: human
[4] = system: SARS-CoV-2; experiment: Antiviral assay in Calu-3 cells (spike staining); type: cell-based; conditions: for antiviral activity against SARS-CoV-2 (in words): two different cell lines (Caco-2, Calu-3)
[5] = molecular target: SARS-CoV-2 M^pro (Severe acute respiratory syndrome coronavirus 2, UniProt P0DTD1); experiment: biochemical; type: biochemical; conditions: for inhibition at 20 µM: read-out: SARS-CoV-2 M^pro enzyme inhibition (%) 20 μM; for inhibition at 100 µM: 100 μM compound, read-out: SARS-CoV-2 M^pro enzyme inhibition (%) 100 μM
[6] = Cytotoxicity in Calu-3 cells; conditions: human
[7] = Cytotoxicity in Caco-2 cells; conditions: human
[8] = system: SARS-CoV-2; experiment: Antiviral assay in Caco-2 cells; type: cell-based; conditions: Severe acute respiratory syndrome coronavirus 2, Caco-2, read-out: Anti SARS-CoV-2 activity Caco-2 IC50 (µM)
[9] = molecular target: M^pro (Severe acute respiratory syndrome coronavirus 2, UniProt P0DTD1); type: binding; conditions: 2 μM protein, 50 μM ligand
[10] = Severe acute respiratory syndrome coronavirus 2, Calu-3 cells, MOI 0.01, 48 h postinfection, read-out: Anti-SARS-CoV-2 activity IC50
[11] = read-out: SARS-CoV-2 M^pro IC50, buffer with 5 mM DTT
[12] = 20 μM compound, buffer with 5 mM DTT, for values marked a the relative standard deviation of 6% applies
[13] = Severe acute respiratory syndrome coronavirus 2, Calu-3, 48 h, read-out: Anti-SARS-CoV-2 activity IC50 (μM)

Structure (SMILES) | inhibition at 20 µM [1] [%] | inhibition at 100 µM [1] [%] | inhibition at 20 µM [2] [%] | inhibition at 20 µM [5, 12] [%] | inhibition at 100 µM ([5]; buffer with 5 mM DTT) [%] | further results
COc1ccc(CNC(=O)c2ccc(Cn3c(=O)c(C)nc4ccccc43)cc2)cc1 [Compound 46] | 12.7 ± 6.9 | 14 ± 3.4 |  |  |  | 
COCCN1C(=O)C(O)=C(C(=O)c2ccc(OC)c(C)c2)C1c1ccc(O)cc1 (stereo not drawn) [Compound 39] | 10 ± 5.4 | 42 ± 1.3 | 26 ± 34.7 |  |  | 
COc1cc(CNC(=O)CCCC/C=C/C(C)C)ccc1O [Compound 31, trans-capsaicin] | 5.6 ± 9.7 | 5.3 ± 0.1 | 32.4 ± 13.7 |  |  | 
CN1[C@@H](CC(=O)c2ccccc2)CCC[C@H]1C[C@H](O)c1ccccc1 [Compound 32, lobelin] | 3.7 ± 2.6 |  | 26.6 ± 11 |  |  | 
COc1cc2c(cc1OC)/C(=C/C(=O)c1ccc(CSC)cc1)NCC2 [Compound 41] | 9.6 ± 5.8 | 14.6 ± 13.1 |  |  |  | 
CC(C)=CCc1c(-c2ccc(O)cc2O)oc2c3c(cc(O)c2c1=O)OC(C)(C)C=C3 [Compound 23, morusin] |  |  |  |  |  | CC50 [3]: 25.2 µM; IC50 [4, 10]: 24.9 µM; IC50 [5, 11]: 33.5 µM
CC(C)=CCc1cc(-c2coc3cc(O)ccc3c2=O)ccc1O [Compound 20, neobavaisoflavone] |  |  |  |  |  | inhibition at 20 µM [5]: 18%
CC(C)=CCC/C(C)=C/Cc1c(O)ccc([C@@H]2CC(=O)c3c(O)cc(O)cc3O2)c1O [Compound 11, sanggenol A] |  |  |  | 31.9 | 98.3 ± 2.4 | 
COc1cc(C2Oc3cc([C@H]4Oc5cc(O)cc(O)c5C(=O)[C@@H]4O)ccc3OC2CO)ccc1O (stereo partly drawn) [Compound 34, silibinin] | 6.5 ± 3.6 |  | 50.3 ± 14.3 |  |  | CC50 [3]: > 100 µM; IC50 [4, 13]: > 100 µM
Cn1cc(CNC(=O)c2cc([N+](=O)[O-])ccc2Cl)cn1 [Compound 38] | 3 ± 0.7 | 6.4 ± 4.6 | 26.1 ± 15.2 |  |  | 
COc1ccc(C(=O)N(CCN(Cc2ccccc2)C(=O)c2ccc(OC)cc2)Cc2ccccc2)cc1 [Compound 27] |  |  |  | 4.8 ± 4 | 28.2 ± 8.3 | 
COc1ccc2c(C)c(CC(=O)Nc3c(C)cccc3C(C)C)c(=O)oc2c1OC [Compound 45] | 9 ± 4.3 | 2.6 ± 0.1 | -2.6 ± 36.1 |  |  | 
CCC(CC)COC(=O)[C@H](C)N[P@](=O)(OC[C@H]1O[C@@](C#N)(c2ccc3c(N)ncnn23)[C@H](O)[C@@H]1O)Oc1ccccc1 [Compound 1, remdesivir, reference compound] |  |  |  |  |  | CC50 [6]: > 0.1 µM; IC50 [4, 10]: 0.00125 µM
COc1ccc(S(=O)(=O)NCc2ccc(C(=O)NCc3ccccc3)cc2)cc1 [Compound 44] | 6.4 ± 4.2 | 1.5 ± 1.2 | 18.5 ± 16.6 |  |  | 
O=C(CCc1ccccc1)C[C@H]1C[C@H](c2ccccc2)c2c(cc(/C=C/c3ccccc3)oc2=O)O1 [Compound 17, katsumadain A] |  |  |  | 5 | 47.7 ± 2.8 | 
C=C(C)[C@H](CC=C(C)C)Cc1c(O)cc(OC)c2c1O[C@H](c1ccc(O)cc1O)CC2=O [Compound 21, kurarinone] |  |  |  | 30.2 | 99.2 ± 2.5 | 
O=C(CCCN1C(=O)c2ccccc2N2C(=O)c3ccccc3C12)NCCc1cnc[nH]1 (stereo not drawn) [Compound 28] |  |  |  | 14.1 ± 5.1 | 59.7 ± 1 | 

Structure (SMILES) | inhibition at 20 µM [1] [%] | inhibition at 100 µM [1] [%] | inhibition at 20 µM [2] [%] | inhibition at 20 µM [5, 12] [%] | inhibition at 100 µM ([5]; buffer with 5 mM DTT) [%] | further results
C=CCc1ccc(O)c(-c2cc(CC=C)ccc2O)c1 [Compound 36, magnolol] | 4.3 ± 6.6 |  | 58.2 ± 11.5 |  |  | CC50 [6]: > 20 µM; CC50 [7]: 47.3 µM; IC50 [8]: 17.7 µM; IC50 [4, 13]: 26.8 µM; antiviral activity against SARS-CoV-2 (in words) [4]: moderately acting antiviral compounds
C=CCc1ccc(O)c(-c2ccc(O)c(CC=C)c2)c1 [Compound 35, honokiol] | 4.9 ± 4.6 | 5.3 ± 3.2 | 80.6 ± 9.9 |  |  | CC50 [6]: > 20 µM; CC50 [7]: 91.2 µM; IC50 [8]: 16.2 µM; SARS-CoV-2 PLpro inhibition % enzyme inhibition (20 µM) [2]: significant enzyme inhibition; IC50 [4, 13]: 28.4 µM; antiviral activity against SARS-CoV-2 (in words) [4]: moderately acting antiviral compounds
COc1cc(CC(CO)Oc2ccc(CCCO)cc2OC)ccc1O (stereo not drawn) [Compound 47] | 8.8 ± 5.6 | 0.5 ± 0.8 | -55.8 ± 32.4 |  |  | 
COc1ccc(C(=O)COc2ccc3c(c2)O/C(=C\c2cc(OC)ccc2OC)C3=O)cc1 [Compound 43] | 10 ± 5.4 | 14.3 ± 3.4 | 13.5 ± 25.5 |  |  | 
O=C(/C=C/c1ccc(O)c(O)c1)O[C@@H](C(=O)O)[C@@H](OC(=O)/C=C/c1ccc(O)c(O)c1)C(=O)O [Compound 18, chicoric acid] |  |  |  | 0.7 | 11.5 ± 0.6 | 
Oc1ccc([C@@H]2c3c(O)cc(O)cc3[C@@H]3c4c(O)cc(O)cc4[C@H]2[C@H]3c2ccc(O)cc2)cc1 [Compound 25, ampelopsin F] |  |  |  | 18.9 ± 2.2 | 37.5 ± 0.8 | 
COc1ccc(CNC(=O)c2cn(CCC(C)C)c(=O)c3ccccc23)cc1OC [Compound 48] | 8.2 ± 2.3 | 0.3 ± 0.5 | 32 ± 4.2 |  |  | 
COc1cc(O)c(C(=O)/C=C/c2ccccc2)c(O)c1[C@H]1C[C@H](c2ccccc2)Oc2c(OC)c(O)cc(OC)c21 [Compound 26, sarcandrone B] |  |  |  | 1.2 ± 2.5 | 7.5 ± 2.5 | 
COc1cc([C@@H]2Oc3c(O)cc([C@H]4Oc5cc(O)cc(O)c5C(=O)[C@@H]4O)cc3[C@H]2CO)ccc1O [Compound 33, silicristin] | 3.4 ± 7.8 | 19.8 ± 2 |  |  |  | 
O=C(CC(c1ccccc1)c1ccccc1)NCCCc1ccccc1 [Compound 40] | 1.6 ± 8.8 | 5 ± 2.6 | 41.5 ± 16.5 |  |  | 
CC1=C[C@H](c2c(O)ccc([C@@H]3CC(=O)c4c(O)cc(O)cc4O3)c2O)[C@@H](C(=O)c2ccc(O)cc2O)[C@H](c2ccc(O)cc2O)C1 [Compound 16, kuwanon L] |  |  |  | 70.4 | 97.6 ± 2.5 | CC50 [6]: 97.7 µM; IC50 ([5]; read-out: SARS-CoV-2 M^pro IC50): 5.25 µM and 5.3 µM; STD signals [9]: exhibited STD signals
CC(C)=CCC12Oc3cc(O)c([C@@H]4C=C(C)C[C@H](c5ccc(O)cc5O)[C@H]4C(=O)c4ccc(O)cc4O)c(O)c3C(=O)C1(O)Oc1cc(O)ccc12 (stereo partly drawn) [Compound 14, sanggenon D] |  |  |  |  |  | CC50 [6]: 46.2 µM; IC50 [4, 10]: 18.5 µM; IC50 ([5]; SARS-CoV-2 M^pro IC50 (μM), buffer with 5 mM DTT): 13.8 µM and 13.9 µM; STD signals [9]: exhibited STD signals
CC(C)(O)[C@H](O)COc1c2ccoc2cc2oc(=O)ccc12 [Compound 37, oxypeucedanin hydrate] |  |  | 97.5 ± 14.6 |  |  | SARS-CoV-2 PLpro inhibition % enzyme inhibition (20 µM) [2]: significant enzyme inhibition; CC50 [3]: > 100 µM; IC50 [4, 13]: > 100 µM
CC(C)=CCc1c(-c2ccc(O)c3c2OC(C)(C)C=C3)oc2cc(O)cc(O)c2c1=O [Compound 22, kuwanon A] |  |  |  | 45.5 ± 7.1 | 79.2 ± 2.4 | CC50 [3]: 47.7 µM; IC50 [4, 10]: 35.6 µM; IC50 [5, 11]: 35.2 µM
Cn1c(=O)c2c(nc(SCC(=O)Nc3ccc4c(c3)OCO4)n2Cc2cccc(Cl)c2)n(C)c1=O [Compound 29] |  |  |  |  | 7.3 ± 10.2 | 
CC(C)(O)CCc1c(-c2ccc(O)cc2O)oc2c3c(cc(O)c2c1=O)OC(C)(C)C=C3 [Compound 24, morusinol] |  |  |  | 23.1 ± 2.8 | 71.2 ± 1.9 | 
O=C(/C=C/c1ccc(O)c(O)c1)OC1CC(OC(=O)/C=C/c2ccc(O)c(O)c2)(C(=O)O)CC(O)C1O (stereo not drawn) [Compound 19, cynarine] |  |  |  |  | 9.8 ± 13.3 | 
